# Biological target: T1, human insulin (Homo sapiens, UniProt P01308)
# T1 construct: human insulin was biotinylated using a NHS-PEO4-biotin kit; biotin (chemical label, NHS-PEO4-biotin)
# Experiment: Octet RED insulin binding assay (biotinylated human insulin on streptavidin biosensors)
# Conditions: Octet RED binding assays
# T1 sequence (P01308 25-54 limits assumed): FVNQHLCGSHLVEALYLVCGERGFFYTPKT
# T1 sequence (P01308 90-110 limits assumed): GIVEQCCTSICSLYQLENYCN
row,Sequence,Specific binding to human insulin
1,"AYLIWIRILEDNPSEY [Analogue 16, peptide analogue from SjIR-2 FnIII-1]",no specific binding
2,"GSLIIENGNCSGDLSTLLPNLTVIRNQVI [Analogue 2, peptide analogue from SjIR-1 L1 domain]",no specific binding
3,"HEPKCHKVIEPITN [Analogue 8, peptide analogue from SjIR-1 FnIII-1]",no specific binding
4,"IGIDESESIIETIC [Analogue 7, peptide analogue from SjIR-1 FnIII-1]",no specific binding
5,"ILPVIVDEVVSLKSDTVG [Analogue 18, peptide analogue from SjIR-2 FnIII-2]",no specific binding
6,"IPRDASLPFLKEVTGSLLVYDTEGPEDL [Analogue 14, peptide analogue from SjIR-2 L1]",no specific binding

# Reference: publication PMC4956214, “Identification of Host Insulin Binding Sites on Schistosoma japonicum Insulin Receptors” (PLoS ONE, 2016)
